What all share (test): growth of human tumour cells (NCI), 48 h
The subject of experiment [1] is A498 renal.
The subject of experiment [2] is HCC-2998 colon.
In experiment [3] the test system is HCT-116 colon.
Experiment [4] has as its system KM12 colon.
Experiment [5] has as its system MALME-3M melanoma.
The test system of experiment [6] is OVCAR-3 ovarian.
In experiment [7] the test system is RPMI-8226 leukemia.
For experiment [8], the system named is SN12C renal.
In experiment [9] the test system is SR leukemia.
For experiment [10], the system named is UO-31 renal.

Values joined by “and” are separate entries in the source; they are usually repeats but may differ in a detail not shown here. Equal entries are not always repeated.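 Dose response: 5 concentrations. Exposure: 48 h. Format: 96-well plates. Endpoint: linear interpolation; highest concentration if not reached. GI50 is the concentration that inhibits growth by half. The concentration for full growth arrest is given as TGI.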 A value given as a limit tells only on which side of the number the result lay.

Data on eight compounds can be found in PubChem BioAssay (NCI).

Consider `C=C1CC[C@@H]2[C@](C)(COC(C)=O)[C@H](OC(C)=O)CC[C@@]2(C)[C@@H]1CC(Nc1ccc(S(=O)(=O)Nc2ccc(Cl)nn2)cc1)C1=CCOC1=O` (some centres undefined), for which the GI50 is 1.4 µM in [1]; 1.84 µM in experiment [2]; 1.08 µM in experiment [3]; 1.7 µM in experiment [4]; 1.72 µM in [5]; 1.22 µM in [6]. Besides, the GI50 in experiment [7] was 0.445 µM; in experiment [8], 1.25 µM; in experiment [9], 1.35 µM; in [10] it was 1.45 µM. Moreover, the TGI in experiment [1] stood at 4.26 µM; in [2] it was 3.86 µM; in experiment [3], 2.32 µM; in [4], 3.49 µM; in [5], 3.9 µM; in experiment [6] it was 2.51 µM. Moreover, the TGI was found to be 3.04 µM in experiment [7], 3.66 µM in experiment [8], 8.1 µM in experiment [9] and 2.88 µM in experiment [10].
For `O=c1c(O)c(-c2ccc(O)c(O)c2)oc2cc(O)cc(O)c12`, the GI50 in experiment [1] is 7.11 µM; in experiment [2], 16 µM; in experiment [3], 16.9 µM; in experiment [4], 9.4 µM; in experiment [5], 62 µM; in [6] it was 16 µM. Also, the GI50 in experiment [7] is 10.2 µM; in experiment [8], 10.5 µM; in experiment [9], 3.57 µM; in experiment [10], 8.48 µM. The TGI was 24.2 µM and > 100 µM in experiment [1]; 51 µM and > 100 µM in experiment [2]; > 100 µM in [3]; 59.3 µM and > 100 µM in experiment [4]; > 100 µM in experiment [5]; 49.2 µM and > 100 µM in [6]. For the same compound, the TGI in [7] was 86.9 µM; in experiment [8] it was > 100 µM; in [9], > 100 µM; in experiment [10] it was > 100 µM.
Regarding `Cn1cccc1-c1cc(-c2ccc(Br)cc2)[nH]c(=O)c1C#N`, the GI50 in experiment [1] is 54.4 µM; in experiment [2], > 100 µM; in experiment [3], > 100 µM; in [4], > 100 µM; in experiment [5], > 100 µM; in experiment [6], 85.8 µM. The GI50 in experiment [7] was > 100 µM; in [8], > 100 µM; in experiment [9] it was > 100 µM; in experiment [10] it was 69.1 µM. Moreover, the TGI in experiment [1], in experiment [2], in [3], in experiment [4], in experiment [5] and in experiment [6] was > 100 µM throughout. The TGI in [7], in [8], in experiment [9] and in experiment [10] was > 100 µM in each case.
Regarding `Cc1nn(-c2ccc(Cl)cc2)c2nc3c(nc12)C(=O)C(=O)c1ccccc1-3`, the GI50 in [1] is 1.27 µM; in [2], 1.74 µM; in experiment [3], 7.42 µM; in experiment [4], 3.76 µM; in experiment [5], 1.43 µM; in [6], 3.48 µM. For the same compound, the GI50 in [7] is 5.65 µM; in experiment [8], 2.7 µM; in experiment [9], 7.28 µM; in [10], 1.82 µM. Moreover, the TGI in experiment [1] is 2.96 µM; in experiment [2], 3.79 µM; in [3], 32.8 µM; in experiment [4], 15.6 µM; in experiment [5], 3.86 µM; in experiment [6], > 100 µM. For the same compound, the TGI was > 100 µM in [7], 12.6 µM in experiment [8], > 100 µM in [9] and 7.14 µM in [10].
On to `CC1(C)CC2CC(CC(C)(C)C2=O)C1=O`, for which the TGI in experiment [1], in experiment [2], in [3], in experiment [4], in [5] and in experiment [6] was > 100 µM each time. The TGI in experiment [7], in [8], in experiment [9] and in [10] was > 100 µM in each case.
In the case of `COc1cccc(NC(=O)CC(=O)N2N=C(N3c4ccccc4Sc4ccccc43)CC2c2ccccc2)c1` (centres undefined), the TGI in experiment [1], in experiment [2], in [3], in experiment [4], in [5] and in experiment [6] was > 100 µM throughout. The TGI in [7], in experiment [8], in experiment [9] and in experiment [10] was > 100 µM in each case.
In the case of `Cc1cnc(CNC(=O)c2c(=O)c3ccc(N4CCCN(C)CC4)nc3n3c2sc2ccccc23)cn1`, the GI50 in experiment [1] is 12.2 µM; in experiment [2], 2.72 µM; in [3], 0.806 µM; in [4], 1.5 µM; in [5] it was 9.24 µM; in experiment [6], 7.2 µM. Also, the GI50 in [7] is 1.54 µM; in experiment [8] it was 1.32 µM; in [9], 0.0311 µM; in experiment [10] it was 3.03 µM. For the same compound, the TGI was 25.2 µM in experiment [1]; 21.3 µM in experiment [2]; 2.76 µM in [3]; 10.1 µM in [4]; 25.8 µM in experiment [5]; 22 µM in experiment [6]. Besides, the TGI in [7] was 6.1 µM; in experiment [8], 19.9 µM; in experiment [9], > 34.3 µM; in [10] it was 21.3 µM.
`Nc1ccccc1C#C/C=C\C#Cc1cccc(O)c1`: the GI50 in experiment [1] is 11 µM; in [2], 3.98 µM; in experiment [3], 2.73 µM; in [4], 2.61 µM; in experiment [5], 11.3 µM; in [6], 2.73 µM. Besides, the GI50 in [7] was 2.51 µM; in experiment [8], 2.66 µM; in experiment [9], 1.55 µM. In addition, the TGI is 35.9 µM in experiment [1]; 9.08 µM in experiment [2]; 12.2 µM in [3]; 11.7 µM in experiment [4]; > 43.4 µM in experiment [5]; 14.7 µM in experiment [6]. The TGI in experiment [7] is > 38.2 µM; in experiment [8], 19.6 µM; in [9] it was 6.13 µM; in [10] it was 13.9 µM.
